# Patent US20060217345A1, “Beta-L-nucleosides and use thereof as pharmaceutical agents for the treatment of viral diseases” (priority 2003, published 2006)
# Where two headings read alike, the source gives them in different places.
# Columns and labels:
# [1] = system: HBV replication in HepG2 2.2.15 cells; test: Antiviral activity: reduction of extracellular HBV DNA in HepG2 2.2.15 cells; type: cell-based, hepatitis B virus; conditions: read-out: ED50 values (concentration resulting in 50% reduction of HBV DNA in the medium of the cells)
# Method: The antiviral efficacy of the compounds of at least one embodiment was investigated on HepG2 2.2.15 cells, a human hepatoblastoma cell line which has the replication-competent HBV genome stably integrated therein and produces infectious progeny viruses in a productive manner (Sells et al., Proc Natl Acad Sci USA 1987, 84: 1005-1009).
# The above cells were cultured under standardized conditions as specified by Korba and Gerin, and the amount of extracellular viral DNA was determined (Korba et al., Antiviral Res 1992, 19: 55-70).
# Following passaging, the HepG2 2.2.15 cells were seeded at a density of about 60% in 12-well plates and cultured to confluence in 10% FBS Dulbecco MEM. Thereafter, the medium was changed to 2% FBS, and the cells were cultured for another 24 hours.
# After another change of medium, the cells were treated with varying concentrations of compounds according to at least one embodiment. Every 24 hours the compounds were re-added together with the medium. […]
# Following treatment of the culture supernatants with proteinase K, the extracellular viral DNA was amplified by means of PCR using the following primers (forward: 5′-CTCCAGTTCAGGAACAGTAAACCC-3′; reverse: 5′-TTGTGAGCTCAGAAAGGCCTTGTAAGTTGGCG-3′. The PCR products were separated on 1% agarose, stained with ethidium bromide and quantified using a Fluor-S™ Multimager (Biorad).
# For calibration of the PCR reaction, serial dilutions of the pUC19 HBV and pTHBV plasmids with known genome equivalents (GE) were used, resulting in a lower detection limit of about 10^3 GE and a linearity between 10^3 and 10^5 GE.
# [2] = system: HBV replication; conditions: 5-modified β-L-cytosine nucleosides; compares with compounds with non-modified bases; cited from earlier work
# [3] = molecular target: T1, HBV DNA polymerase (Hepatitis B virus genotype D subtype ayw, UniProt P03156); test: Inhibition of endogenous HBV DNA polymerase activity (3H-dCTP incorporation); type: biochemical; conditions: nucleoside triphosphates; purified virus particles from patient serum; 0.7 μM dCTP; two-hour incubation at 37° C.; read-out: IC50 (50% inhibition of the HBV DNA polymerase activity)
# T1 construct: 30 μl of polymerase batch included about 2-4×10^8 purified virus particles (lysed beforehand); from tissue; host or cells: Serum of patients infected with hepatitis B virus (Charité, Berlin); virus particles purified through a saccharose gradient and lysed
# Method: Synthesis and purification of the triphosphates of β-L-5-methylcytidine nucleosides were effected according to well-known methods (Yoshikawa et al., Tetradedron Lett 1967, 50: 5065-5068; Hoard et Ott, J Am Chem Soc 1965, 87: 1785-1788).
# To determine the endogenous HBV DNA polymerase activity, about 60 ml of serum from patients with hepatitis B virus infections from Charité, Berlin (>10^7 HBV particles/ml), was centrifuged at 3000 rpm, followed by sedimentation of the virus particles at 25,000 g, 60 min, taking up in 7 ml of TKM buffer (50 mM Tris-HCl, pH 7.5, 50 mM KCl, 5 mM MgCl2), and centrifugation through a saccharose gradient (0.3 M, 0.6 M, 0.9 M saccharose in 10 ml of TKM buffer each time) at 25,000 g for 20 hours. The purified virus sediment was suspended in 400 μl of TKM using ultrasound, divided in aliquots and frozen at −80° C. (Davies et al., Antiviral Res 1996, 30: 133-145).
# 30 μl of polymerase batch included about 2-4×10^8 purified virus particles (lysed beforehand in 6% β-mercaptoethanol, 10% Igepal for 15 min at room temperature), 42 mM Tris-HCl, (pH 7.5), 34 mM MgCl2, 340 mM KCl, 22 mM β-mercaptoethanol, 0.4% Igepal, 70 μM TTP, dATP, dGTP and 1 μCi ^3H-dCTP (=0.7 μM dCTP) (Matthes et al., Antimicrob Agents & Chemoth 1991, 35: 1254-1257) and varying concentrations of β-L-5-methylcytidine nucleoside triphosphates.
# Following a two-hour incubation at 37° C., 20 μl of each batch was placed on paper filter, washed 5 times with 5% trichloroacetic acid and 0.1% Na pyrophosphate, and the ^3H-dCTP incorporated in the HBV DNA was subsequently measured in a Liquid Scintillation Counter.
# Using the concentration-dependent inhibition curves of HBV DNA synthesis, the concentration of β-L-5-methylcytidine nucleoside triphosphates resulting in 50% inhibition of the HBV DNA polymerase activity was determined. The IC50 values are illustrated in Table 2.
# [4] = system: HepG2 cells; test: Cytotoxicity: inhibition of proliferation of HepG2 cells; type: cell-based, human; conditions: Hep G2 cells, Dulbecco MEM, incubated for two days
# Method: (§1) To this end, established cells of a human myeloid leukemia (HL-60) in RPMI medium, and the above-mentioned HepG2 cells in Dulbecco MEM, respectively, were incubated for two days using varying concentrations of compounds, and the proliferation rate of the cells was subsequently determined. The data was used to determine the concentration of compounds resulting in 50% inhibition of proliferation (CD50).
# [5] = system: HL-60 cells; test: Cytotoxicity: inhibition of proliferation of HL-60 cells; type: cell-based, human; conditions: RPMI medium, incubated for two days
# Method: as §1
# [6] = system: HBV infections; conditions: treatment of HBV infections; cited from earlier work
# [7] = HepG2 2.2.15 cells, extracellular HBV DNA by PCR, after 9 days of incubation
# T1 sequence (P03156 whole entry): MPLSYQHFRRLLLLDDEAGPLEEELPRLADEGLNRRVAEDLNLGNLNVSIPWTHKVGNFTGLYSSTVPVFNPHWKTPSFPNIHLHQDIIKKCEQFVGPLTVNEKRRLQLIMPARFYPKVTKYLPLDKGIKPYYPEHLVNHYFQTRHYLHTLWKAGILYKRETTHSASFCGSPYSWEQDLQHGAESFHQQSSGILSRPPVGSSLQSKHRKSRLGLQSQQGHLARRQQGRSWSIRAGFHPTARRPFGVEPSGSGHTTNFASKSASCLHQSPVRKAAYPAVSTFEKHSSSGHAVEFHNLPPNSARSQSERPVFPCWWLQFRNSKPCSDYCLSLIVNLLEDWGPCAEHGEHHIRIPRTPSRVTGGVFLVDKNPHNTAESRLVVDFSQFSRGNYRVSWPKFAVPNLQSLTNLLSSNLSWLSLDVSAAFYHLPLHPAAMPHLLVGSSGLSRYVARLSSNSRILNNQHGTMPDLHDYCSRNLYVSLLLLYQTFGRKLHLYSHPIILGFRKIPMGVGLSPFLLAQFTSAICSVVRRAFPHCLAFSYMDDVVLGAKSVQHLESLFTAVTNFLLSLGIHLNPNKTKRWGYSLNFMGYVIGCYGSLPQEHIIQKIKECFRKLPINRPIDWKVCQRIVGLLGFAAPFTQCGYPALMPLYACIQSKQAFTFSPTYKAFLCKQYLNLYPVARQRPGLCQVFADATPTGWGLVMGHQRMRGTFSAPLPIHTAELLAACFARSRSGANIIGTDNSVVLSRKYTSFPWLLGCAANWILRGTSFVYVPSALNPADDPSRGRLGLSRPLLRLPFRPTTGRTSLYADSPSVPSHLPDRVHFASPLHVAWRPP
compound,measurement,setting,value
"Nc1ccn([C@@H]2CS[C@H](CO)O2)c(=O)n1 [3TC, β-L-2′,3′-dideoxy-3′-thiacytidine, reference compound]",EC50,"[1]; Hepatitis B virus, 216 h, HepG2 2.2.15 cells, extracellular HBV DNA by PCR, after 9 days of incubation",100 to 200 nM
"Nc1nc(=O)n([C@H]2C[C@H](O)[C@@H](CO)O2)cc1Cl [CldC, β-L-deoxy-5-chlorocytidine]","effect with respect to HBV replication, as described in the literature",[2],ineffective or sparingly effective
"Nc1nc(=O)n([C@H]2C[C@H](O)[C@@H](CO)O2)cc1F [FdC, β-L-deoxy-5-fluorocytidine]","effect with respect to HBV replication, as described in the literature",[2],less effective
"Nc1nc(=O)n(C2OC(CO)C=C2F)cc1F [L-2′F-ddeFC, β-L-2′,3′-dideoxy-2′,3′-didehydro-2′-fluoro-5-fluorocytidine]","effect with respect to HBV replication, as described in the literature",[2],equally effective
"Nc1nc(=O)n([C@H]2O[C@@H](CO)[C@H](O)[C@H]2O)cc1F [L-AraFC, β-L-arabinofuranosyl-5-fluorocytosine]","effect with respect to HBV replication, as described in the literature",[2],no effect
"Nc1nc(=O)n([C@H]2O[C@@H](CO)[C@H](O)[C@H]2F)cc1Br [L-FABrC, β-L-2′-fluoroarabinofuranosyl-5-bromocytosine]","effect with respect to HBV replication, as described in the literature",[2],ineffective or sparingly effective
"Nc1nc(=O)n([C@H]2O[C@@H](CO)[C@H](O)[C@H]2F)cc1Cl [L-FAC1C, β-L-2′-fluoroarabinofuranosyl-5-chlorocytidine]","effect with respect to HBV replication, as described in the literature",[2],ineffective or sparingly effective
"Nc1nc(=O)n([C@H]2O[C@@H](CO)[C@H](O)[C@H]2F)cc1F [L-FAFC, β-L-2′-fluoroarabinofuranosyl-5-fluorocytosine]","effect with respect to HBV replication, as described in the literature",[2],no effect
"Nc1nc(=O)n([C@H]2CC[C@@H](CO)O2)cc1F [L-FddC, β-L-2′,3′-dideoxy-5-fluorocytidine]","effect with respect to HBV replication, as described in the literature",[2],equally effective
"Nc1nc(=O)n([C@@H]2C=C[C@H](CO)O2)cc1F [L-FddeC, β-L-2′,3′-dideoxy-2′,3′-didehydro-5-fluorocytidine]","effect with respect to HBV replication, as described in the literature",[2],more effective
"Nc1ccn([C@@H]2CS[C@H](COP(=O)(O)OP(=O)(O)OP(=O)(O)O)O2)c(=O)n1 [Triphosphate of 3TC, reference compound]",IC50,[3],0.3 µM
Cc1cn([C@H]2O[C@@H](COP(=O)(O)OP(=O)(O)OP(=O)(O)O)[C@H](O)[C@H]2O)c(=O)nc1N [Triphosphate of β-L-AraMetC],IC50,[3],10.8 µM
Cc1cn([C@@H]2C[C@@H](O)[C@H](COP(=O)(O)OP(=O)(O)OP(=O)(O)O)O2)c(=O)nc1N [Triphosphate of β-L-MetCdR],IC50,[3],0.9 µM
Cc1cn([C@@H]2C[C@@H](N=[N+]=[N-])[C@H](COP(=O)(O)OP(=O)(O)OP(=O)(O)O)O2)c(=O)nc1N [Triphosphate of β-L-N3MetCdR],IC50,[3],0.8 µM
Cc1cn([C@@H]2CC[C@H](COP(=O)(O)OP(=O)(O)OP(=O)(O)O)O2)c(=O)nc1N [Triphosphate of β-L-ddMetCdR],IC50,[3],6.5 µM
Cc1cn([C@@H]2C=C[C@H](COP(=O)(O)OP(=O)(O)OP(=O)(O)O)O2)c(=O)nc1N [Triphosphate of β-L-ddeMetCdR],IC50,[3],6.2 µM
"Cc1cn([C@@H]2C[C@@H](F)[C@H](CO)O2)c(=O)nc1N [β-L-2′,3′-dideoxy-3′-fluoro-5-methylcytidine]","effect with respect to HBV replication, as described in the literature",[2],ineffective or sparingly effective
"Nc1nc(=O)n(C2CSC(CO)O2)cc1Br [β-L-2′,3′-dideoxy-3′-thia-5-bromocytidine]","effect with respect to HBV replication, as described in the literature",[2],ineffective or sparingly effective
"Nc1nc(=O)n(C2CSC(CO)O2)cc1Cl [β-L-2′,3′-dideoxy-3′-thia-5-chlorocytidine]","effect with respect to HBV replication, as described in the literature",[2],ineffective or sparingly effective
"Cc1cn(C2CSC(CO)O2)c(=O)nc1N [β-L-2′,3′-dideoxy-3′-thia-5-methylcytidine]","effect with respect to HBV replication, as described in the literature",[2],ineffective or sparingly effective
"Cc1cn([C@H]2O[C@@H](CO)[C@H](O)[C@H]2O)c(=O)nc1N [β-L-AraMetC, 1-β-L-arabinofuranosyl-5-methylcytosine]",EC50,"[1]; Hepatitis B virus, HepG2 2.2.15, 216 h",> 20000 nM
same,"Cytotoxicity (CD50), concentration resulting in 50% inhibition of proliferation",[4],>2000
same,"Cytotoxicity (CD50), concentration resulting in 50% inhibition of proliferation",[5],>2000
"Cc1cn([C@@H]2C[C@@H](O)[C@H](CO)O2)c(=O)nc1N [β-L-MetCdR, β-L-5-methyldeoxycytidine]",EC50,[1]; [7],270 to 600 nM
same,"Cytotoxicity (CD50), concentration resulting in 50% inhibition of proliferation",[4],>2000
same,"Cytotoxicity (CD50), concentration resulting in 50% inhibition of proliferation",[5],>2000
"Cc1cn([C@@H]2C[C@@H](N=[N+]=[N-])[C@H](CO)O2)c(=O)nc1N [β-L-N3MetCdR, β-L-3′-azido-2′,3′-dideoxy-5-methylcytidine]",EC50,[1]; [7],350 to 950 nM
same,"Cytotoxicity (CD50), concentration resulting in 50% inhibition of proliferation",[4],>2000
same,"Cytotoxicity (CD50), concentration resulting in 50% inhibition of proliferation",[5],2000
"Cc1cn([C@@H]2CC[C@H](CO)O2)c(=O)nc1N [β-L-ddMetC, β-L-2′,3′-dideoxy-5-methylcytidine]",EC50,[1]; [7],> 20000 nM
"Cc1cn([C@@H]2C=C[C@H](CO)O2)c(=O)nc1N [β-L-ddeMetC, β-L-2′,3′-didehydro-2′,3′-dideoxy-5-methylcytidine]",EC50,[1]; [7],> 20000 nM
same,"Cytotoxicity (CD50), concentration resulting in 50% inhibition of proliferation",[4],1500
same,"Cytotoxicity (CD50), concentration resulting in 50% inhibition of proliferation",[5],600
α-interferon,proportion of the patients in whom it is effective,[6],about 33%
